Literature values, collected in patent US20070110685A1, “Combination therapy for the treatment of immunoinflammatory disorders” (priority 2005, published 2007).

- absorption after oral administration: absorbed rapidly and completely
Structure (SMILES): CO[C@H]1C[C@@H]2CC[C@@H](C)[C@@](O)(O2)C(=O)C(=O)N2CCCC[C@H]2C(=O)O[C@H]([C@H](C)C[C@@H]2CC[C@@H](O)[C@H](OC)C2)CC(=O)[C@H](C)/C=C(\C)[C@@H](O)[C@@H](OC)C(=O)[C@H](C)C[C@H](C)/C=C/C=C/C=C/1C [Rapamycin]
